In patent US6165984A, “Naringin and naringenin as inhibitors of acyl CoA-cholesterol-o-acyltransferase” (Korea Institute of Science & Technology, priority 1997, dated 2000):

What was measured:
[1] = Blood total cholesterol and triglyceride in cholesterol-fed rabbits (Example 6); type: in vivo, New Zealand White rabbit; details: 1% cholesterol diet, 6 weeks, 1 mg/kg Lovastatin, 0.1% naringin or naringenin; for Triglyceride: control 56; for Total cholesterol: control 1143
Procedure: Blood samples were taken from the rats of the three dietary groups and plasma HDL fractions were separated therefrom by using HDL-cholesterol reagent (Sigma Chemical Co., Cat. No. 352-3) containing dextran-sulfate. Total cholesterol and HDL-cholesterol levels were determined by using Sigma Diagnostic Kit Cat. No. 352-100(Sigma Chemical Co., […] et al., Clin. Chem., 20, 470-475(1974)). Neutral lipid level was determined by using Sigma Diagnostic Kit Cat. No. 339-50(Bucolo, G. and David, H., Clin. Chem., 19, 476-482(1973)). The result is shown in Table III, wherein the total plasma cholesterol levels in naringin and naringenin-fed rat groups decreased by 32% and 18%, respectively, as compared with that of the control group. […] RC4 diet comprises 7.6% moisture, 22.8% crude protein, 2.8% crude fat, 8.8% crude ash, 14.4% crude cellulose and 43.6% soluble nitrogen-free substances. The rabbits were bred for 6 weeks while being allowed free access to the diets and water. Further, blood samples were taken from the rabbits and total cholesterol and triglyceride levels were determined in accordance with the same procedure in Example 4.

[2] = literature; cited from earlier work
[3] = system: macrophage-lipid complex on the arterial endothelium; experiment: Fatty streak analysis: macrophage-lipid complex on main artery of cholesterol-fed rabbits (Example 6); type: in vivo, New Zealand White rabbit; details: for inhibition of accumulation of macrophage-lipid complex on the arterial endothelium (conclusion): 0.1% in 1% cholesterol diet; for area of macrophage-lipid complex accumulated on the arterial endothelium, compared to control group / M-L (macrophage-lipid) complex area: 1% cholesterol diet, 6 weeks, 0.1% naringin or naringenin; for M-L (macrophage-lipid) complex area: proportion of total arterial area, control 35
From the text: RC4 diet comprises 7.6% moisture, 22.8% crude protein, 2.8% crude fat, 8.8% crude ash, 14.4% crude cellulose and 43.6% soluble nitrogen-free substances. The rabbits were bred for 6 weeks while being allowed free access to the diets and water. The rabbits bred in (Step 1) were sacrificed and their chest were incised. The main artery was cut out therefrom in a length of about 5 cm downward from the site 1 cm above the aortic valve and the fat surrounding the main artery was removed. The main artery was incised in the middle along the longitudinal axis and pinned to a dish. The moist artery was photographed and, then, staining of fatty streak was carried out in accordance with the method of […]., et al. (J. Lab. Clin. […] A part of the incised main artery was washed three times by 2 min. with anhydrous propylene glycol and stained for 30 min. with a saturated solution of Oil Red O (ORO, Sigma Co.) dissolved in propylene glycol. Thereafter, the artery was washed twice by 3 min. with 85% propylene glycol to remove remaining staining solution and, then washed with physical saline. The artery was photographed and the photograph was traced. The area of stained region (fatty streak region) was determined with an image analyzer (LEICA, Q-600, Germany) and its proportion (%) to the total arterial area was calculated. On the other hand, the other part of the main artery was stained in accordance with hematoxylin-eosin (H&E) and Masson's trichrome staining methods and observed under a microscope to confirm whether the macrophage-lipid complexes were accumulated in the intima, internus, elastic lamina and media.

[4] = Plasma total cholesterol, HDL-cholesterol and neutral lipid in rats on high-cholesterol diet (Example 4); type: in vivo, Sprague-Dawley rat; details: 1% cholesterol diet plus 0.1% compound, six weeks; for HDL-C: control 22.2; for TG (triglyceride): control 99.2 ± 18.9; for Total-C (total plasma cholesterol): control 147.8 ± 34.8
From the text: 30 four-week-old Sprague-Dawley rats (Taihan laboratory animal center, Korea) each weighing about 90 to 110 g were evenly divided into three dietary groups by a randomized block design. The rats of the three groups were fed with three different high-cholesterol diets, i.e., AIN-76 laboratory animal diet (ICN Biochemicals, Cleveland, Ohio, U.S.A.) containing 1% cholesterol (Control group), and 1% cholesterol plus 0.1% naringin or naringenin, respectively.
The effect of administering naringin or naringenin to rats on the plasma cholesterol and neutral lipid content was determined as follows.
Blood samples were taken from the rats of the three dietary groups and plasma HDL fractions were separated therefrom by using HDL-cholesterol reagent (Sigma Chemical Co., Cat. No. 352-3) containing dextran-sulfate. Total cholesterol and HDL-cholesterol levels were determined by using Sigma Diagnostic Kit Cat. No. 352-100(Sigma Chemical Co., U.S.A.) (Allain et al., Clin. Chem., 20, 470-475(1974)). Neutral lipid level was determined by using Sigma Diagnostic Kit Cat. No. 339-50(Bucolo, G. and David, H., Clin. Chem., 19, 476-482(1973)). The result is shown in Table III, wherein the total plasma cholesterol levels in naringin and naringenin-fed rat groups decreased by 32% and 18%, respectively, as compared with that of the control group.

Question: Which Triglyceride [1] does the source give for O=C1C[C@@H](c2ccc(O)cc2)Oc2cc(O)cc(O)c21 [naringenin] here?
Answer: 70 mg/dL

Question: And the Total cholesterol [1]?
Answer: 1350 mg/dL

Question: What about the reported activities [2] of the same compound?
Answer: anti-cancer, anti-viral and cholesterol lowering activities

Question: And the “inhibition of accumulation of macrophage-lipid complex on the arterial endothelium (conclusion)” value [3]?
Answer: strongly inhibit

Question: And the “area of macrophage-lipid complex accumulated on the arterial endothelium, compared to control group” value ([3]; 1 mg/kg Lovastatin)?
Answer: decreased significantly

Question: And the “M-L (macrophage-lipid) complex area” value ([3]; 1 mg/kg Lovastatin)?
Answer: 13%

Question: What about the “decrease of total plasma cholesterol level compared with control group” value [4] of the same compound?
Answer: 18%

Question: And the HDL-C [4]?
Answer: 23.4 mg/dL

Question: What about the “TG (triglyceride)” value [4] of the same compound?
Answer: 103.4 ± 18.2 mg/dL

Question: What about the “Total-C (total plasma cholesterol)” value [4] of the same compound?
Answer: 120.9 ± 25.9 mg/dL

Question: What does the source list for C[C@@H]1O[C@@H](O[C@H]2[C@H](Oc3cc(O)c4c(c3)O[C@H](c3ccc(O)cc3)CC4=O)O[C@H](CO)[C@@H](O)[C@@H]2O)[C@H](O)[C@H](O)[C@H]1O [naringin, Naringin]?
Answer: Triglyceride [1]: 72 mg/dL; Total cholesterol [1]: 1367 mg/dL; reported activities [2]: anti-cancer, anti-viral and cholesterol lowering activities; layer of macrophage-lipid complex on the arterial endothelium (FIGS. 1A-1C) ([3]; 1 mg/kg Lovastatin, 0.1% naringin, control: thick layer): no or very thin layers of macrophage-lipid complex; inhibition of accumulation of macrophage-lipid complex on the arterial endothelium (conclusion) [3]: strongly inhibit; area of macrophage-lipid complex accumulated on the arterial endothelium, compared to control group ([3]; 1 mg/kg Lovastatin): decreased significantly; M-L (macrophage-lipid) complex area ([3]; 1 mg/kg Lovastatin): 12%; decrease of total plasma cholesterol level compared with control group [4]: 32%; HDL-C [4]: 24.0 mg/dL; TG (triglyceride) [4]: 86.7 ± 14.6 mg/dL; Total-C (total plasma cholesterol) [4]: 100.8 ± 16.1 mg/dL
